# According to ChEMBL document CHEMBL1201862, “PubChem BioAssay data set” (2004):
#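 Following 48 hours of exposure in 96-well plates, responses at five concentrations were used to interpolate endpoints linearly. GI50 is the concentration that inhibits growth by half.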 Calls of active or inactive are those of the source. Rule as the data show it: active = GI50 up to about 1.1 µM and inactive = higher.
# Legend:
# Test in all cases: DTP human tumour cell line panel, 48 h
# 786-0 = tested on: 786-0
# ACHN = tested on: ACHN
# BT-549 = tested on: BT-549
# DU-145 = tested on: DU-145
# M14 = tested on: M14
# MDA-MB-435 = tested on: MDA-MB-435
# MOLT-4 = tested on: MOLT-4
# NCI-H23 = tested on: NCI-H23
# NCI-H522 = tested on: NCI-H522
# RXF 393 = tested on: RXF 393
# SF-268 = tested on: SF-268
# SF-295 = tested on: SF-295
# SNB-75 = tested on: SNB-75
# T47D = tested on: T47D
# UACC-257 = tested on: UACC-257
# A498 = tested on: A498
# SK-MEL-2 = tested on: SK-MEL-2
# SW-620 = tested on: SW-620
# HCC 2998 = tested on: HCC 2998
Structure (SMILES),GI50 (786-0),GI50 (ACHN),GI50 (BT-549),GI50 (DU-145),GI50 (M14),GI50 (MDA-MB-435),GI50 (MOLT-4),GI50 (NCI-H23),GI50 (NCI-H522),GI50 (RXF 393),GI50 (SF-268),GI50 (SF-295),GI50 (SNB-75),GI50 (T47D),GI50 (UACC-257),GI50 (A498),GI50 (SK-MEL-2),GI50 (SW-620),GI50 (HCC 2998)
S=C1Nc2ccccc2SC1c1ccccc1 (stereo not drawn),34.9 µM (inactive),69.3 µM (inactive),> 100 µM (inactive),> 100 µM (inactive),> 100 µM (inactive),> 100 µM (inactive),> 100 µM (inactive),74.6 µM (inactive),> 100 µM (inactive),16.6 µM (inactive),30.3 µM (inactive),16.4 µM (inactive),23.6 µM (inactive),72.6 µM (inactive),> 100 µM (inactive),–,–,–,–
O=C1c2cccnc2S(=O)(=O)N1c1ccc(Br)cc1,> 100 µM (inactive),–,79.1 µM (inactive),> 100 µM (inactive),> 100 µM (inactive),> 100 µM (inactive),> 100 µM (inactive),> 100 µM (inactive),> 100 µM (inactive),> 100 µM (inactive),> 100 µM (inactive),> 100 µM (inactive),95.1 µM (inactive),> 100 µM (inactive),> 100 µM (inactive),> 100 µM (inactive),> 100 µM (inactive),> 100 µM (inactive),–
CC(C)CC1N=C(OCc2ccccc2)OC1=O (stereo not drawn),> 100 µM (inactive),> 100 µM (inactive),> 100 µM (inactive),> 100 µM (inactive),> 100 µM (inactive),> 100 µM (inactive),> 100 µM (inactive),> 100 µM (inactive),> 100 µM (inactive),> 100 µM (inactive),2.79 µM (inactive),> 100 µM (inactive),> 100 µM (inactive),> 100 µM (inactive),> 100 µM (inactive),> 100 µM (inactive),> 100 µM (inactive),> 100 µM (inactive),–
CCCCCCCCCCCCCCCCCCNC(=S)NC=C1C(=O)c2ccccc2C1=O,9.12 µM (inactive),10.9 µM (inactive),15.7 µM (inactive),6.12 µM (inactive),10.3 µM (inactive),15.9 µM (inactive),4.03 µM (inactive),15.6 µM (inactive),–,–,5.62 µM (inactive),13.6 µM (inactive),–,15.8 µM (inactive),17.9 µM (inactive),19.2 µM (inactive),–,11.1 µM (inactive),2.13 µM (inactive)
CC(=O)/C(=C/n1c(=S)sc2ccccc21)C(=O)Nc1ccccc1C,> 100 µM (inactive),> 100 µM (inactive),> 100 µM (inactive),> 100 µM (inactive),> 100 µM (inactive),> 100 µM (inactive),> 100 µM (inactive),> 100 µM (inactive),–,> 100 µM (inactive),> 100 µM (inactive),> 100 µM (inactive),> 100 µM (inactive),40.9 µM (inactive),> 100 µM (inactive),> 100 µM (inactive),> 100 µM (inactive),> 100 µM (inactive),> 100 µM (inactive)
CCCC(=O)OCC1OC(n2cc(F)c(=O)[nH]c2=O)C(F)C1OC(=O)CCC (stereo not drawn),18.2 µM (inactive),25.6 µM (inactive),13.9 µM (inactive),15.3 µM (inactive),36.3 µM (inactive),51.5 µM (inactive),> 100 µM (inactive),35.7 µM (inactive),> 100 µM (inactive),54.7 µM (inactive),8.53 µM (inactive),49.2 µM (inactive),43.5 µM (inactive),> 100 µM (inactive),85.7 µM (inactive),6.38 µM (inactive),> 100 µM (inactive),53.6 µM (inactive),–
Cn1cc(C=C(C#N)C#N)c(=O)n(C)c1=O,> 100 µM (inactive),> 100 µM (inactive),> 100 µM (inactive),> 100 µM (inactive),> 100 µM (inactive),> 100 µM (inactive),0.809 µM (active),> 100 µM (inactive),37.6 µM (inactive),> 100 µM (inactive),> 100 µM (inactive),> 100 µM (inactive),> 100 µM (inactive),> 100 µM (inactive),> 100 µM (inactive),> 100 µM (inactive),> 100 µM (inactive),56.1 µM (inactive),–
Cc1ccc(S(=O)(=O)NC(CN)C(=O)O)cc1 (stereo not drawn),> 100 µM (inactive),> 100 µM (inactive),> 100 µM (inactive),> 100 µM (inactive),> 100 µM (inactive),> 100 µM (inactive),36.8 µM (inactive),> 100 µM (inactive),> 100 µM (inactive),> 100 µM (inactive),> 100 µM (inactive),> 100 µM (inactive),> 100 µM (inactive),> 100 µM (inactive),> 100 µM (inactive),> 100 µM (inactive),> 100 µM (inactive),> 100 µM (inactive),–
O=c1cc(CN2CCCCC2)nc2ccc3c(O)cc(CN4CCCCC4)nc3n12,> 100 µM (inactive),> 100 µM (inactive),> 100 µM (inactive),> 100 µM (inactive),> 100 µM (inactive),> 100 µM (inactive),89.7 µM (inactive),> 100 µM (inactive),–,> 100 µM (inactive),> 100 µM (inactive),> 100 µM (inactive),> 100 µM (inactive),> 100 µM (inactive),88.9 µM (inactive),> 100 µM (inactive),> 100 µM (inactive),> 100 µM (inactive),> 100 µM (inactive)
COC(OC)[C@@H]1OC[C@H](n2ccc(=O)[nH]c2=O)[C@H]1O,> 100 µM (inactive),> 100 µM (inactive),> 100 µM (inactive),> 100 µM (inactive),> 100 µM (inactive),> 100 µM (inactive),> 100 µM (inactive),> 100 µM (inactive),–,66.4 µM (inactive),> 100 µM (inactive),> 100 µM (inactive),> 100 µM (inactive),> 100 µM (inactive),> 100 µM (inactive),> 100 µM (inactive),> 100 µM (inactive),> 100 µM (inactive),> 100 µM (inactive)
CCSC12CC3c4cccc5c4C(CN5C(=O)c4ccccc4)CC3(O1)N(C)C2=O (stereo not drawn),36.2 µM (inactive),33.6 µM (inactive),26.1 µM (inactive),51.8 µM (inactive),46.7 µM (inactive),34.8 µM (inactive),22.2 µM (inactive),24.7 µM (inactive),25.1 µM (inactive),71.1 µM (inactive),42.7 µM (inactive),45.6 µM (inactive),73.6 µM (inactive),17.7 µM (inactive),29.4 µM (inactive),32.1 µM (inactive),40.3 µM (inactive),75.5 µM (inactive),–
NC(=O)c1cc2ccccc2c(/N=N/c2ccccc2)c1O,9.31 µM (inactive),–,> 100 µM (inactive),> 100 µM (inactive),> 100 µM (inactive),> 100 µM (inactive),76.7 µM (inactive),> 100 µM (inactive),38.7 µM (inactive),> 100 µM (inactive),52.7 µM (inactive),> 100 µM (inactive),> 100 µM (inactive),> 100 µM (inactive),> 100 µM (inactive),> 100 µM (inactive),> 100 µM (inactive),> 100 µM (inactive),–
